Laboratory results taken from US20260028365A1 (BIOGEN MA INC., priority 2022, published 2026).
pIC50: −log10 of the molar value.

Biological target: Tyk2 (Homo sapiens (Human), UniProt P29597)
Test: pSTAT4 Cell Assay (MSD, NK92 cells)
Type: cell-based
Settings: MSD
Experimental: The inhibitory potency of compounds of the disclosure against the Tyk2 kinase activity on STAT4 was evaluated using an MSD-platform plate-based assay format. NK92 cells natively expressing STAT4 and Tyk2 were serum-starved to reduce background phosphorylation levels, then cells were treated compounds for 1 hr with a 10-point four-fold dilution series starting at 10 μM. Cells were then stimulated with 30 ng/mL […] for 15 minutes. […] The data were normalized and the percent activity versus log concentration of compound were fitted with a 4-parameter logistic model to generate to generate IC50 curves.

Chain of Tyk2 (P29597 whole entry): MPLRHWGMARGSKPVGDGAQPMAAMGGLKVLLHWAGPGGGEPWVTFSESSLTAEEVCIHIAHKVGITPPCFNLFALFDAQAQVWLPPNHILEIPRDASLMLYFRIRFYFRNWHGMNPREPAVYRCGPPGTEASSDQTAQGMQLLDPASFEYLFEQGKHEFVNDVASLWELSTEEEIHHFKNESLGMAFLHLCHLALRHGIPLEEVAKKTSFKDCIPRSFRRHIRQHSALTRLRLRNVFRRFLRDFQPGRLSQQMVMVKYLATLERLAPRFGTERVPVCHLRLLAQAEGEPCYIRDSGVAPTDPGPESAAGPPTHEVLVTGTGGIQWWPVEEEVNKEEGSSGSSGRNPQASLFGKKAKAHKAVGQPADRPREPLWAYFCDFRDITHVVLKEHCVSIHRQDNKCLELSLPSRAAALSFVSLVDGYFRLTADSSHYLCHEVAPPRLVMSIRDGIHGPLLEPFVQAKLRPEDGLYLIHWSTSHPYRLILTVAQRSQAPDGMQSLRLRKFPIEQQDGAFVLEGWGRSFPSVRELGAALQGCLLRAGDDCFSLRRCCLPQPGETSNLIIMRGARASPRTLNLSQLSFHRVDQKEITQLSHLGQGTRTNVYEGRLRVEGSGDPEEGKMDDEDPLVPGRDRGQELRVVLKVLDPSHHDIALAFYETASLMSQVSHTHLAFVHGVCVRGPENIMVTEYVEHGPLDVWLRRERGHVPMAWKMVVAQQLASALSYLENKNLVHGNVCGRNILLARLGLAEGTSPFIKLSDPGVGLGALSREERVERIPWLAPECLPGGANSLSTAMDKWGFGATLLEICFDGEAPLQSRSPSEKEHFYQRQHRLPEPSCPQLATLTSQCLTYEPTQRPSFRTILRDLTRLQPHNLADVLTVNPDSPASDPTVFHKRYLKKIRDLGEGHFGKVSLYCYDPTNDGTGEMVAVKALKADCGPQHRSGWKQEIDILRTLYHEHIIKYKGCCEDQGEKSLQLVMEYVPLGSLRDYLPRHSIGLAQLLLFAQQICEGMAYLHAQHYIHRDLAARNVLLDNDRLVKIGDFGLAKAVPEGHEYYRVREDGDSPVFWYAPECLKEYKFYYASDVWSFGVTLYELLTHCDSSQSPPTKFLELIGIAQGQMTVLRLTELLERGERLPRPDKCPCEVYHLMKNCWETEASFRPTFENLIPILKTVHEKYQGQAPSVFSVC

`CC(=O)Nc1cc(Nc2cc(C)nc(C(C)(F)F)n2)c(OCc2cc(C#N)ccn2)cn1` [Example 129, N-(5-((4-cyanopyridin-2-yl)methoxy)-4-((2-(1,1-difluoroethyl)-6-methylpyrimidin-4-yl)amino)pyridin-2-yl)acetamide] and `CC(=O)Nc1cc(Nc2cc(C)nc(C(C)(F)F)n2)c(OCc2cc(C)ccn2)cn1` [Example 133, N-(4-((2-(1,1-difluoroethyl)-6-methylpyrimidin-4-yl)amino)-5-((4-methylpyridin-2-yl)methoxy)pyridin-2-yl)acetamide] cannot be ordered by pIC50: 7.00 to 8.00 for the first, no less than 8.00 for the second.

`CC(=O)Nc1cc(Nc2cc(C)nc(C(C)(F)F)n2)c(OCc2ccc(C)cn2)cn1` [Example 130, N-(4-((2-(1,1-difluoroethyl)-6-methylpyrimidin-4-yl)amino)-5-((5-methylpyridin-2-yl)methoxy)pyridin-2-yl)acetamide] and `CC(=O)Nc1cc(Nc2cc(C)nc(C(C)(F)F)n2)c(OCc2ccc(C#N)cn2)cn1` [Example 131, N-(5-((5-cyanopyridin-2-yl)methoxy)-4-((2-(1,1-difluoroethyl)-6-methylpyrimidin-4-yl)amino)pyridin-2-yl)acetamide] fall in the same range of pIC50: 7.00 to 8.00 for the first, 7.00 to 8.00 for the second.

First: COc1cccc(COc2cnc(NC(C)=O)cc2Nc2cc(C)nc(C(C)(F)F)n2)n1 [Example 132, N-(4-((2-(1,1-difluoroethyl)-6-methylpyrimidin-4-yl)amino)-5-((6-methoxypyridin-2-y1)methoxy)pyridin-2-yl)acetamide]
Second: COc1ccc(Oc2cnc(NC(C)=O)cc2Nc2cc(C)nc(C(C)(F)F)n2)nn1 [Example 358, N-(4-((2-(1,1-difluoroethyl)-6-methylpyrimidin-4-yl)amino)-5-((6-methoxypyridazin-3-yl)oxy)pyridin-2-yl)acetamide]
The pIC50 of the first is higher: 7.00 to 8.00 for the first, no more than 6.00 for the second.

Compared with `CC(=O)Nc1cc(Nc2cc(C)nc(C(C)(F)F)n2)c(OCc2ncccn2)cn1` [Example 134, N-(4-((2-(1,1-difluoroethyl)-6-methylpyrimidin-4-yl)amino)-5-(pyrimidin-2-ylmethoxy)pyridin-2-yl)acetamide], `COC(C)CCOc1cnc(NC(C)=O)cc1Nc1cc(C)nc(C(C)(F)F)n1` (stereo not shown) [Example 137, N-(4-((2-(1,1-difluoroethyl)-6-methylpyrimidin-4-yl)amino)-5-(3-methoxybutoxy)pyridin-2-yl)acetamide] is higher in pIC50: 6.00 to 7.00 for the first, 7.00 to 8.00 for the second.

`CC(=O)Nc1cc(Nc2cc(C)nc(C(C)(F)F)n2)c(OCC2CCCOC2)cn1` (stereo not shown) [Example 136, N-(4-((2-(1,1-difluoroethyl)-6-methylpyrimidin-4-yl)amino)-5-((tetrahydro-2H-pyran-3-yl)methoxy)pyridin-2-yl)acetamide] and `CC(=O)Nc1cc(Nc2cc(C)nc(C(C)(F)F)n2)c(OCC2CCN(C)C2)cn1` (stereo not shown) [Example 480, N-(4-((2-(1,1-difluoroethyl)-6-methylpyrimidin-4-yl)amino)-5-((1-methylpyrrolidin-3-yl)methoxy)pyridin-2-yl)acetamide] cannot be ordered by pIC50: no less than 8.00 for the first, 7.00 to 8.00 for the second.

`CC(=O)Nc1cc(Nc2cc(C)nc(C34COC(C3)C4)n2)c(-c2cc3n(n2)CCN(C)C3)cn1` [Example 141, N-(4-((2-(2-oxabicyclo[2.1.1]hexan-4-yl)-6-methylpyrimidin-4-yl)amino)-5-(5-methyl-4,5,6,7-tetrahydropyrazolo[1,5-a]pyrazin-2-yl)pyridin-2-yl)acetamide] and `CCN1CCn2nc(-c3cnc(NC(C)=O)cc3Nc3cc(C)nc(C45COC(C4)C5)n3)cc2C1` [Example 544, N-(4-((2-(2-oxabicyclo[2.1.1]hexan-4-yl)-6-methylpyrimidin-4-yl)amino)-5-(5-ethyl-4,5,6,7-tetrahydropyrazolo[1,5-a]pyrazin-2-yl)pyridin-2-yl)acetamide] cannot be ordered by pIC50: no less than 8.00 for the first, no less than 8.00 for the second.

Compared with `COc1cnc(C(C)(F)F)nc1Nc1cc(NC(C)=O)ncc1C1CC1` [Example 143, N-(5-cyclopropyl-4-((2-(1,1-difluoroethyl)-5-methoxypyrimidin-4-yl)amino)pyridin-2-yl)acetamide], `COc1cnc(NC(C)=O)cc1Nc1cc(-c2cnc(C)s2)nc(C(C)(F)F)n1` [Example 387, N-(4-((2-(1,1-difluoroethyl)-6-(2-methylthiazol-5-yl)pyrimidin-4-yl)amino)-5-methoxypyridin-2-yl)acetamide] is higher in pIC50: no more than 6.00 for the first, no less than 8.00 for the second. The second is the more potent here.

`CO[C@H]1C[C@H](Oc2cc(Nc3cc(NC(C)=O)ncc3-c3ccn(C)n3)nc(C(C)(F)F)c2)C1` [Example 148, N-(4-((6-(1,1-difluoroethyl)-4-((1r,3r)-3-methoxycyclobutoxy)pyridin-2-yl)amino)-5-(1-methyl-1H-pyrazol-3-yl)pyridin-2-yl)acetamide] and `COc1cc(Nc2cc(NC(C)=O)ncc2-c2ccn(C)n2)nc(C(C)(F)F)c1` [Example 209, N-(4-((6-(1,1-difluoroethyl)-4-methoxypyridin-2-yl)amino)-5-(1-methyl-1H-pyrazol-3-yl)pyridin-2-yl)acetamide] cannot be ordered by pIC50: no less than 8.00 for the first, no less than 8.00 for the second.

Going from `CC(=O)Nc1cc(Nc2cccc(C(F)CF)n2)c(-c2ccn(C)n2)cn1` (stereo not shown) [Example 149, N-(4-((6-(1,2-difluoroethyl)pyridin-2-yl)amino)-5-(1-methyl-1H-pyrazol-3-yl)pyridin-2-yl)acetamide] to `CC(=O)Nc1cc(Nc2cc(C(C)C)nc(C(C)(F)F)n2)c(-c2ccn(C)n2)cn1` [Example 205, N-(4-((2-(1,1-difluoroethyl)-6-isopropylpyrimidin-4-yl)amino)-5-(1-methyl-1H-pyrazol-3-yl)pyridin-2-yl)acetamide], the pIC50 falls from no less than 8.00 to no more than 6.00. The first is the more potent here.

`COCCOc1cc(Nc2cc(NC(C)=O)ncc2-c2ccn(C)n2)nc(C(C)(F)F)n1` [Example 207, N-(4-((2-(1,1-difluoroethyl)-6-(2-methoxyethoxy)pyrimidin-4-yl)amino)-5-(1-methyl-1H-pyrazol-3-yl)pyridin-2-yl)acetamide] and `COCCOc1cc(Nc2cc(NC(C)=O)ncc2-c2ccn(C)n2)nc(C(C)(F)F)c1` [Example 210, N-(4-((6-(1,1-difluoroethyl)-4-(2-methoxyethoxy)pyridin-2-yl)amino)-5-(1-methyl-1H-pyrazol-3-yl)pyridin-2-yl)acetamide] cannot be ordered by pIC50: no less than 8.00 for the first, no less than 8.00 for the second.

`CC(=O)Nc1cc(Nc2cc(C)nc(C(C)(F)F)n2)c(-c2cc3n(n2)CCNC3=O)cn1` [Example 223, N-(4-((2-(1,1-difluoroethyl)-6-methylpyrimidin-4-yl)amino)-5-(4-oxo-4,5,6,7-tetrahydropyrazolo[1,5-a]pyrazin-2-yl)pyridin-2-yl)acetamide] and `CC(=O)Nc1cc(Nc2cc(C)nc(C(C)(F)F)n2)c(-c2cc3n(n2)CC(C)N(C)C3)cn1` (stereo not shown) [Example 548, N-(4-((2-(1,1-difluoroethyl)-6-methylpyrimidin-4-yl)amino)-5-(5,6-dimethyl-4,5,6,7-tetrahydropyrazolo[1,5-a]pyrazin-2-yl)pyridin-2-yl)acetamide] cannot be ordered by pIC50: 7.00 to 8.00 for the first, no less than 8.00 for the second.

Compared with `CC(=O)Nc1cc(Nc2cc(C)nc(C(C)(F)F)n2)c(-c2cc3n(n2)C(O)CN(C)C3)cn1` (stereo not shown) [Example 224, N-(4-((2-(1,1-difluoroethyl)-6-methylpyrimidin-4-yl)amino)-5-(7-hydroxy-5-methyl-4,5,6,7-tetrahydropyrazolo[1,5-a]pyrazin-2-yl)pyridin-2-yl)acetamide], `CC(=O)Nc1cc(Nc2cc(C)nc(C(C)(F)F)n2)c(-c2cc(N(C)C)cnn2)cn1` [Example 253, N-(4-((2-(1,1-difluoroethyl)-6-methylpyrimidin-4-yl)amino)-5-(5-(dimethylamino)pyridazin-3-yl)pyridin-2-yl)acetamide] is lower in pIC50: no less than 8.00 for the first, no more than 6.00 for the second.

`COCCOc1cc(-c2cnc(NC(C)=O)cc2Nc2cc(C)nc(C(C)(F)F)n2)ncn1` [Example 249, N-(4-((2-(1,1-difluoroethyl)-6-methylpyrimidin-4-yl)amino)-5-(6-(2-methoxyethoxy)pyrimidin-4-yl)pyridin-2-yl)acetamide] and `CC(=O)Nc1cc(Nc2cc(C)nc(C(C)(F)F)n2)c(-c2ccc(C(F)F)nn2)cn1` [Example 546, N-(4-((2-(1,1-difluoroethyl)-6-methylpyrimidin-4-yl)amino)-5-(6-(difluoromethyl)pyridazin-3-yl)pyridin-2-yl)acetamide] cannot be ordered by pIC50: 7.00 to 8.00 for the first, no less than 8.00 for the second.

`CC(=O)Nc1cc(Nc2ccnc(C(C)(F)F)n2)c(-c2nc3c(s2)CN(C)C3)cn1` [Example 284, N-(4-((2-(1,1-difluoroethyl)pyrimidin-4-yl)amino)-5-(5-methyl-5,6-dihydro-4H-pyrrolo[3,4-d]thiazol-2-yl)pyridin-2-yl)acetamide] and `CNC(=O)Nc1cc(Nc2cc(C)nc(C(C)(F)F)n2)c(-c2ccc(F)cn2)cn1` [Example 290, 1-(4′-((2-(1,1-difluoroethyl)-6-methylpyrimidin-4-yl)amino)-5-fluoro-[2,3′-bipyridin]-6′-yl)-3-methylurea] cannot be ordered by pIC50: 7.00 to 8.00 for the first, no less than 8.00 for the second.

`COc1cnc(NC(C)=O)cc1Nc1cc(-c2cc(F)c3nn(C)cc3c2)nc(C(C)(F)F)n1` [Example 396, N-(4-((2-(1,1-difluoroethyl)-6-(7-fluoro-2-methyl-2H-indazol-5-yl)pyrimidin-4-yl)amino)-5-methoxypyridin-2-yl)acetamide] and `CC(=O)Nc1cc(Nc2cc(C)nc(C3CCOC3)n2)c(-c2cc3n(n2)CCN(C)C3)cn1` (stereo not shown) [Example 547, N-(4-((6-methyl-2-(tetrahydrofuran-3-yl)pyrimidin-4-yl)amino)-5-(5-methyl-4,5,6,7-tetrahydropyrazolo[1,5-a]pyrazin-2-yl)pyridin-2-yl)acetamide] cannot be ordered by pIC50: 7.00 to 8.00 for the first, no less than 8.00 for the second.

Work on `COCc1ccc(-c2cnc(NC(C)=O)cc2Nc2cc(C)nc(C3CCCOC3)n2)nc1` (stereo not shown) [Example 571, N-(5-(methoxymethyl)-4′-((6-methyl-2-(tetrahydrO2H-pyran-3-yl)pyrimidin-4-yl)amino)-[2,3′-bipyridin]-6′-yl)acetamide] yielded a pIC50 of 7.00 to 8.00.
